# Laboratory results taken from ChEMBL document CHEMBL4184210, “Optimization of novel monobactams with activity against carbapenem-resistant Enterobacteriaceae - Identification of LYS228” (Bioorg Med Chem Lett, 2018).
# Experiments:
# Escherichia coli [1] = experiment: microbe, parasite or virus in culture
# Description: Antimicrobial activity against Escherichia coli expressing beta-lactamase CTXM-15 by CLSI broth microdilution method
# Escherichia coli [2] = experiment: microbe, parasite or virus in culture; remark: listed apart in the source
# Description: Antimicrobial activity against Escherichia coli expressing beta-lactamase TEM-10 by CLSI broth microdilution method
# Escherichia coli [3] = experiment: microbe, parasite or virus in culture; remark: listed apart in the source
# Description: Antimicrobial activity against wild type Escherichia coli by CLSI broth microdilution method
# Escherichia coli [4] = experiment: Antimicrobial activity against Escherichia coli expressing beta-lactamase KPC-2 by CLSI broth microdilution method; type: functional
# Escherichia coli [5] = experiment: microbe, parasite or virus in culture; remark: listed apart in the source
# Description: Antimicrobial activity against Escherichia coli expressing beta-lactamase SHV-12 by CLSI broth microdilution method
# Escherichia coli [6] = experiment: microbe, parasite or virus in culture; remark: listed apart in the source
# Description: Antimicrobial activity against Escherichia coli expressing beta-lactamase AmpC by CLSI broth microdilution method
# Escherichia coli [7] = experiment: microbe, parasite or virus in culture; remark: listed apart in the source
# Description: Antimicrobial activity against Escherichia coli expressing beta-lactamase CMY-2 by CLSI broth microdilution method
# [8] = Chemical stability in pH 7.4 potassium phosphate buffer assessed as half life for compound hydrolysis at 37 degC by UPLC and mass spectrometry; type: physicochemical
# Escherichia coli [9] = experiment: Antimicrobial activity against Escherichia coli expressing beta-lactamase NDM-1 by CLSI broth microdilution method; type: functional
Compound,MIC (Escherichia coli [1]) [mg/L],MIC (Escherichia coli [2]) [mg/L],MIC (Escherichia coli [3]) [mg/L],MIC (Escherichia coli [4]) [mg/L],MIC (Escherichia coli [5]) [mg/L],MIC (Escherichia coli [6]) [mg/L],MIC (Escherichia coli [7]) [mg/L],half-life [8] [h],MIC (Escherichia coli [9]) [mg/L]
CC(C)(O/N=C(\C(=O)N[C@@H]1C(=O)N(S(=O)(=O)O)[C@@H]1CN1C[C@H](CN)OC1=O)c1csc(N)n1)C(=O)O (stereo in doubt),1,8,1,1,1,1,2,> 37,–
Nc1nc(/C(=N/OCC(=O)O)C(=O)N[C@@H]2C(=O)N(S(=O)(=O)O)[C@@H]2Cn2cncn2)cs1 (stereo in doubt),0.25,1,0.125,0.5,16,16,8,–,–
CC(C)(O/N=C(\C(=O)N[C@@H]1C(=O)N(S(=O)(=O)O)[C@@H]1CN1C[C@@H](CO)OC1=O)c1csc(N)n1)C(=O)O (stereo in doubt),16,64,16,32,32,32,16,> 37,–
Nc1nc(/C(=N/OC2(C(=O)O)CCC2)C(=O)N[C@@H]2C(=O)N(S(=O)(=O)O)[C@@H]2Cn2cncn2)cs1 (stereo in doubt),0.5,4,1,1,1,2,4,–,–
CC(C)(O/N=C(\C(=O)N[C@@H]1C(=O)N(S(=O)(=O)O)[C@@H]1CN1C[C@@H](CNC(=N)N)OC1=O)c1csc(N)n1)C(=O)O (stereo in doubt),0.125,2,0.25,1,0.25,0.25,0.25,> 37,–
CN(C[C@@H]1[C@H](NC(=O)/C(=N\OC(C)(C)C(=O)O)c2csc(N)n2)C(=O)N1S(=O)(=O)O)C(=O)CN (stereo in doubt),4,–,4,8,4,16,–,212,4
CC(C)(O/N=C(\C(=O)N[C@@H]1C(=O)N(S(=O)(=O)O)[C@@H]1Cn1ncnc1CNC(=N)N)c1csc(N)n1)C(=O)O (stereo in doubt),16,16,16,32,16,32,32,> 37,–
CC(C)(O/N=C(\C(=O)N[C@@H]1C(=O)N(S(=O)(=O)O)[C@@H]1CNC(=O)CN)c1csc(N)n1)C(=O)O (stereo in doubt),0.25,2,0.25,4,8,0.5,–,149,0.125

# The next lines start with the values.
MIC (Escherichia coli [1]) [mg/L],MIC (Escherichia coli [2]) [mg/L],MIC (Escherichia coli [3]) [mg/L],MIC (Escherichia coli [4]) [mg/L],MIC (Escherichia coli [5]) [mg/L],MIC (Escherichia coli [6]) [mg/L],MIC (Escherichia coli [7]) [mg/L],half-life [8] [h],MIC (Escherichia coli [9]) [mg/L],Compound
0.5,2,0.5,1,1,8,–,978,0.5,CC(C)(O/N=C(\C(=O)N[C@@H]1C(=O)N(S(=O)(=O)O)[C@@H]1Cn1nccn1)c1csc(N)n1)C(=O)O (stereo in doubt)
1,8,1,1,1,2,4,> 37,–,C[C@@H]1CN(C[C@@H]2[C@H](NC(=O)/C(=N\OC(C)(C)C(=O)O)c3csc(N)n3)C(=O)N2S(=O)(=O)O)C(=O)O1 (stereo in doubt)
0.5,2,0.5,1,0.5,1,1,> 37,–,CC(C)(O/N=C(\C(=O)N[C@@H]1C(=O)N(S(=O)(=O)O)[C@@H]1CN1C[C@@H](CN)OC1=O)c1csc(N)n1)C(=O)O (stereo in doubt)
1,32,1,16,16,2,–,113,1,CC(C)(O/N=C(\C(=O)N[C@@H]1C(=O)N(S(=O)(=O)O)[C@@H]1Cn1cnnc1)c1csc(N)n1)C(=O)O (stereo in doubt)
1,8,2,8,8,8,–,–,2,Cc1nnn(C[C@@H]2[C@H](NC(=O)/C(=N\OC(C)(C)C(=O)O)c3csc(N)n3)C(=O)N2S(=O)(=O)O)n1 (stereo in doubt)
16,32,32,16,16,32,64,> 37,–,CC(C)(O/N=C(\C(=O)N[C@@H]1C(=O)N(S(=O)(=O)O)[C@@H]1Cn1cc(C(=O)O)nn1)c1csc(N)n1)C(=O)O (stereo in doubt)
